Data published in ChEMBL document CHEMBL5608246, “Membrane-Targeting Amphiphilic Honokiol Derivatives Containing an Oxazole Moiety as Potential Antibacterials against Methicillin-Resistant Staphylococcus aureus” (J Med Chem, 2024).

Experiments:
[1] = Selectivity index, ratio of HC50 for sheep RBC to MIC for Staphylococcus aureus ATCC 29213; format: toxicity; settings: sheep red blood cells, read-out: Selectivity Index
[2] = system: Staphylococcus aureus; test: Antibacterial activity against methicillin resistant Staphylococcus aureus N315 incubated for 16 to 18 hrs by broth dilution method; format: functional; settings: time 16-18 hrs
[3] = system: Staphylococcus aureus; test: Antibacterial activity against methicillin resistant Staphylococcus aureus M21 incubated for 16 to 18 hrs by broth dilution method; format: functional; settings: time 16-18 hrs
[4] = system: Staphylococcus aureus; test: Antibacterial activity against methicillin resistant Staphylococcus aureus M11 incubated for 16 to 18 hrs by broth dilution method; format: functional; settings: time 16-18 hrs
[5] = system: Staphylococcus aureus; test: Antibacterial activity against methicillin resistant Staphylococcus aureus M23 incubated for 16 to 18 hrs by broth dilution method; format: functional; settings: time 16-18 hrs
[6] = system: Staphylococcus aureus; test: Antibacterial activity against Staphylococcus aureus ATCC 29213 incubated for 16 to 18 hrs by broth dilution method; format: functional; settings: time 16-18 hrs
[7] = system: Staphylococcus aureus; test: Antibacterial activity against methicillin resistant Staphylococcus aureus M17 incubated for 16 to 18 hrs by broth dilution method; format: functional; settings: time 16-18 hrs
[8] = system: Staphylococcus aureus; test: Antibacterial activity against methicillin resistant Staphylococcus aureus M20 incubated for 16 to 18 hrs by broth dilution method; format: functional; settings: time 16-18 hrs
[9] = system: Staphylococcus aureus; test: Antibacterial activity against methicillin resistant Staphylococcus aureus M14 incubated for 16 to 18 hrs by broth dilution method; format: functional; settings: time 16-18 hrs
[10] = system: Escherichia coli; test: Antibacterial activity against Escherichia coli ATCC 25922 incubated for 16 to 18 hrs by broth dilution method; format: functional; settings: time 16-18 hrs
[11] = Hemolytic activity in sheep RBC incubated for 1 hr; format: toxicity, cell-based, Ovis aries, Erythrocyte; settings: sheep red blood cells (erythrocytes)
[12] = system: Staphylococcus aureus; test: Antibacterial activity against methicillin resistant Staphylococcus aureus M22 incubated for 16 to 18 hrs by broth dilution method; format: functional; settings: time 16-18 hrs
[13] = system: Staphylococcus aureus; test: Antibacterial activity against methicillin resistant Staphylococcus aureus M13 incubated for 16 to 18 hrs by broth dilution method; format: functional; settings: time 16-18 hrs
[14] = system: Staphylococcus aureus; test: Antibacterial activity against methicillin resistant Staphylococcus aureus M16 incubated for 16 to 18 hrs by broth dilution method; format: functional; settings: time 16-18 hrs
[15] = system: Staphylococcus aureus; test: Antibacterial activity against methicillin resistant Staphylococcus aureus M12 incubated for 16 to 18 hrs by broth dilution method; format: functional; settings: time 16-18 hrs

Row | SMILES | selectivity ratio [1] | MIC [2] [µg/mL] | MIC [3] [µg/mL] | MIC [4] [µg/mL] | MIC [5] [µg/mL] | MIC [6] [µg/mL] | MIC [7] [µg/mL] | MIC [8] [µg/mL] | MIC [9] [µg/mL] | MIC [10] [µg/mL] | HC50 at 1 h [11] [µg/mL] | MIC [12] [µg/mL] | MIC [13] [µg/mL] | MIC [14] [µg/mL] | MIC [15] [µg/mL]
1 | C=CCc1cc(-c2ccc(OCCC[N+](C)(C)CC(=O)NCCCC)c(CC=C)c2)c2oc(-c3ccccc3)nc2c1.[Br-] | > 20 | 16 | 2 | 2 | 2 | 8 | 1 | 2 | 4 | > 128 | > 160 | 2 | 2 | 4 | 2
2 | C=CCc1cc(-c2ccc(OCCC[N+](C)(C)CC(=O)NCCCC)c(CC=C)c2)c2oc(-c3ccccc3Cl)nc2c1.[Br-] | > 40 | 64 | 128 | 128 | 32 | 16 | 128 | 64 | 64 | 128 | > 640 | 32 | 32 | 32 | 64
3 | C=CCc1cc(-c2ccc(OCCC[N+](C)(C)CC(=O)NCCCC)c(CC=C)c2)c2oc(-c3ccc(C(F)(F)F)cc3)nc2c1.[Br-] | 0.5 | 128 | 8 | 8 | 8 | 128 | 32 | 8 | 16 | 128 | 59.5 | 32 | 8 | 8 | 16
4 | C=CCc1cc(-c2ccc(OCCC[N+](C)(C)CC(=O)NCCCC)c(CC=C)c2)c2oc(-c3ccc(F)cc3Cl)nc2c1.[Br-] | 27.3 | 8 | 4 | 4 | 4 | 8 | 4 | 4 | 4 | > 128 | 219 | 4 | 4 | 4 | 4
5 | C=CCc1cc(-c2ccc(OCCC[N+](C)(C)CC(=O)NCCCC)c(CC=C)c2)c2oc(-c3cc(Br)cc(Br)c3)nc2c1.[Br-] | 1.6 | 128 | 64 | 128 | 128 | 128 | 128 | > 128 | 128 | 128 | 205 | 128 | > 128 | 128 | > 128
6 | C=CCc1cc(-c2ccc(OCCC[N+](C)(C)CC(=O)NCCCC)c(CC=C)c2)c2oc(-c3cccc(OC)c3)nc2c1.[Br-] | 9.6 | 8 | 8 | 8 | 8 | 32 | 8 | 8 | 8 | > 128 | 307 | 16 | 16 | 8 | 16
7 | C=CCc1cc(-c2ccc(OCCC[N+](C)(C)CC(=O)NCCCC)c(CC=C)c2)c2oc(-c3ccc(F)c(Br)c3)nc2c1.[Br-] | 0.4 | 128 | 8 | 8 | 16 | 128 | 16 | 8 | 8 | 128 | 48.5 | 32 | 8 | 16 | 16
8 | C=CCc1cc(-c2ccc(OCCC[N+](C)(C)CC(=O)NCCCC)c(CC=C)c2)c2oc(-c3cccc(Br)c3)nc2c1.[Br-] | > 10 | 64 | 8 | 8 | 8 | 32 | 8 | 8 | 8 | > 128 | > 320 | 8 | 8 | 8 | 8
9 | C=CCc1cc(-c2ccc(OCCC[N+](C)(C)CC(=O)NCCCC)c(CC=C)c2)c2oc(-c3ccc(Cl)c(F)c3)nc2c1.[Br-] | 1.3 | 8 | 8 | 8 | 8 | 64 | 16 | 8 | 4 | 128 | 81 | 8 | 8 | 8 | 16
10 | C=CCc1cc(-c2ccc(OCCC[N+](C)(C)CC(=O)NCCCC)c(CC=C)c2)c2oc(-c3ccccc3F)nc2c1.[Br-] | 27.4 | 8 | 8 | 4 | 4 | 4 | 4 | 4 | 4 | 128 | 110 | 4 | 4 | 4 | 4
11 | C=CCc1cc(-c2ccc(OCCC[N+](C)(C)CC(=O)NCCCC)c(CC=C)c2)c2oc(-c3ccc(Cl)c(Br)c3)nc2c1.[Br-] | > 2.5 | 128 | 128 | > 128 | 128 | 128 | 128 | 128 | 64 | > 128 | > 320 | 128 | 32 | 64 | 128
12 | C=CCc1cc(-c2ccc(OCCC[N+](C)(C)CC(=O)NCCCC)c(CC=C)c2)c2oc(-c3ccc(F)cc3)nc2c1.[Br-] | > 10 | 16 | 8 | 16 | 8 | 32 | 8 | 8 | 8 | > 128 | > 320 | 8 | 8 | 8 | 16
13 | C=CCc1cc(-c2ccc(OCCC[N+](C)(C)CC(=O)NCCCC)c(CC=C)c2)c2oc(-c3ccc(Cl)cc3Cl)nc2c1.[Br-] | 2.7 | 32 | 8 | 64 | 8 | 32 | 8 | 8 | 8 | > 128 | 85.9 | 16 | 16 | 8 | 16
